# Laboratory results reported in paper PMC9471048, “The signaling and selectivity of α‐adrenoceptor agonists for the human α2A, α2B and α2C‐adrenoceptors and comparison with human α1 and β‐adrenoceptors” (Pharmacology Research & Perspectives, 2022).
# Like-named read-outs stand apart in the source and are kept apart here.
# What was measured:
# [1] = target: T1, human α2A‐adrenoceptor (Homo sapiens, UniProt P08913); test: ERK1/2‐phosphorylation in CHO‐α2A cells; format: cell-based; design: expressed in transfected cells; host or cells: CHO-K1 with CRE-SPAP reporter
# T1 sequence (P08913 1-465): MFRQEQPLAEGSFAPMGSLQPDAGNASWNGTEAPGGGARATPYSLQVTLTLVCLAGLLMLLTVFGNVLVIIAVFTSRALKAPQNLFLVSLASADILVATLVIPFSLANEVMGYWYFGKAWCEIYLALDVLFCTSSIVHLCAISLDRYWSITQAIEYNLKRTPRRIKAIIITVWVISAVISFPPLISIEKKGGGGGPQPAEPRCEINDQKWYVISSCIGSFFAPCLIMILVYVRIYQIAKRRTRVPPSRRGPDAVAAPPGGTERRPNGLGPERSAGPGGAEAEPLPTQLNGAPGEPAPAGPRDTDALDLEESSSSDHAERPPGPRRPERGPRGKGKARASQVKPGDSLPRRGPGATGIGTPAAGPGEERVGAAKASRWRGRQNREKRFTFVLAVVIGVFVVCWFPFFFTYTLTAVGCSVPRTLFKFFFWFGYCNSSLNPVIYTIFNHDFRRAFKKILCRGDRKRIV
# [2] = target: T2, human α2C‐adrenoceptor (Homo sapiens, UniProt P18825); test: ERK1/2‐phosphorylation in CHO‐α2C cells; format: cell-based; design: expressed in transfected cells; host or cells: CHO-K1 with CRE-SPAP reporter; settings: for Log EC50, ERK1/2‐phosphorylation: given as negative log EC50, mean ± SEM
# T2 sequence (P18825 1-462): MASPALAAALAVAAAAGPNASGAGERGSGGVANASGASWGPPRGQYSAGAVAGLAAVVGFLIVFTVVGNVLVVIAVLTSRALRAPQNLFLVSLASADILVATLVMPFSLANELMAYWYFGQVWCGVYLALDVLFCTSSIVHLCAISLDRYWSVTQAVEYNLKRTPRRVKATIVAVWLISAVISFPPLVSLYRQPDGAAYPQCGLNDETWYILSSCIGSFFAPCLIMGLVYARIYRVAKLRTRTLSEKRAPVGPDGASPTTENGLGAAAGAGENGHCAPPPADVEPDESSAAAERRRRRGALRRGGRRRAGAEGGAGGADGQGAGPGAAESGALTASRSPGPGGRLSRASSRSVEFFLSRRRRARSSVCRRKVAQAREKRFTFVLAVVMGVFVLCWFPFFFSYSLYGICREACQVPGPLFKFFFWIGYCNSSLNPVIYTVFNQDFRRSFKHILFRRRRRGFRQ
# [3] = target: T2, human α2C‐adrenoceptor
# [4] = target: T2, human α2C‐adrenoceptor; test: 3H‐rauwolscine whole cell binding in CHO‐α2C cells; design: expressed in transfected cells; host or cells: CHO-K1 with CRE-SPAP reporter
# [5] = target: T1, human α2A‐adrenoceptor
# [6] = target: T1, human α2A‐adrenoceptor; test: 3H‐rauwolscine whole cell binding in CHO‐α2A cells; design: expressed in transfected cells; host or cells: CHO-K1 with CRE-SPAP reporter
# [7] = CHO‐α2C cells, % inhibition from the 3 μM forskolin control, mean ± SEM
# [8] = CHO‐α2C cells, CRE‐SPAP production in the absence of forskolin
# [9] = CHO‐α2C cells, inhibition of 3 μM forskolin‐stimulated CRE‐SPAP production, given as negative log IC50, mean ± SEM
# [10] = CHO‐α2C cells, maximum response compared to 10 μM PDBu, mean ± SEM
# [11] = CHO‐α2C cells, 3H‐rauwolscine whole cell binding, given as negative log KD, mean only (SEM in Table 4)
smiles,measurement,setting,value
COc1ccc(OC)c(C(O)CNC(=O)CN)c1 (stereo not shown) [Midodrine],"% 10 μM PDBu, ERK1/2‐phosphorylation, response at 100 μM agonist","[1]; CHO‐α2A, response at 100 μM",101.0 ± 15.5%
same,"% 10 μM PDBu, ERK1/2‐phosphorylation","[2]; CHO‐α2C cells, response at 100 μM ligand (no EC50 given) compared to 10 μM PDBu",80.9 ± 15.6%
C1=C(c2cnc[nH]2)c2ccsc2CC1 [RWJ52353],Log efficacy ratio (KD/IC50),[3],1.80
same,"% inhibition, CRE‐SPAP (with forskolin)",[3]; [7],76.5 ± 5.6%
same,"Log EC50 (Gs), CRE‐SPAP (without forskolin)",[3]; [8],No response
same,"Log IC50 (Gi), CRE‐SPAP (with forskolin)",[3]; [9],−6.47 ± 0.10
same,"% 10 μM PDBu, ERK1/2‐phosphorylation",[2]; [10],143.5 ± 14.0%
same,"Log EC50, ERK1/2‐phosphorylation",[2]; CHO‐α2C cells,−7.74 ± 0.09
same,"Log KD (apparent), CHO‐α2C","[4]; 3H‐rauwolscine whole cell binding, ^app: apparent KD, IC50 from extrapolated curve as not all specific binding was inhibited",−4.67 ± 0.08^app
same,Log KD,[4]; [11],−4.67
CNC[C@H](O)c1cccc(O)c1 [R‐phenylephrine],"% inhibition, CRE‐SPAP (with forskolin)",[3],77.5 ± 3.4%
same,"% 10 μM PDBu, ERK1/2‐phosphorylation",[2],157.0 ± 15.4%
CCc1cccc(CC)c1NC1=NCCN1 [ST‐91],Log efficacy ratio (KD/IC50),[3],1.28
same,"% inhibition, CRE‐SPAP (with forskolin)",[3]; [7],76.5 ± 4.4%
same,"Log EC50 (Gs), CRE‐SPAP (without forskolin)",[3]; [8],No response
same,"Log IC50 (Gi), CRE‐SPAP (with forskolin)",[3]; [9],−7.46 ± 0.09
same,"% 10 μM PDBu, ERK1/2‐phosphorylation",[2]; [10],154.0 ± 15.0%
same,"Log EC50, ERK1/2‐phosphorylation",[2]; CHO‐α2C cells,−7.93 ± 0.17
same,Log KD,[4]; [11],−6.18
OCc1cc(C(O)CNCCCCCCOCCCCc2ccccc2)ccc1O (stereo not shown) [Salmeterol],"Log EC50 (Gs), CRE‐SPAP (without forskolin)","[5]; CHO‐α2A (cell line 1), absence of forskolin",No response
same,"Log IC50 (Gi), CRE‐SPAP (with forskolin)","[5]; CHO‐α2A (cell line 1, 5830 fmol/mg protein), 3 μM forskolin",No response
same,Kd,[6]; read-out: Log KD (binding) (converted),17.4 µM
same,"Log IC50 (Gi), CRE‐SPAP (with forskolin)",[3],No response
same,"Log EC50 (Gs), CRE‐SPAP (without forskolin)",[3]; [8],No response
same,Kd,"[4]; CHO‐α2C cells, 3H‐rauwolscine whole cell binding, given as negative log KD, mean only (SEM in Table 4), read-out: Log KD (converted)",5.25 µM
Cc1sc(C)c2c1CCC=C2c1cnc[nH]1.O=C(O)/C=C\C(=O)O [T‐CG 1000],Log efficacy ratio (KD/IC50),[3],−0.63
same,"% inhibition, CRE‐SPAP (with forskolin)",[3]; [7],50.2 ± 5.1%
same,"Log EC50 (Gs), CRE‐SPAP (without forskolin)",[3]; [8],No response
same,"Log IC50 (Gi), CRE‐SPAP (with forskolin)",[3]; [9],−6.12 ± 0.05
same,"% 10 μM PDBu, ERK1/2‐phosphorylation",[2]; [10],87.5 ± 14.2%
same,"Log EC50, ERK1/2‐phosphorylation",[2]; CHO‐α2C cells,−7.05 ± 0.14
same,Log KD,[4]; [11],−6.75
COC(=O)[C@@H]1[C@H]2C[C@H]3c4[nH]c5ccccc5c4CCN3C[C@@H]2CC[C@@H]1O [yohimbine],"Schild slope (Gi), dexmedetomidine as agonist",[5],1.11 ± 0.07
same,"Schild slope, inhibitory (Gi) component",[5],1.00 ± 0.08
same,"Schild slope, stimulatory (Gs) component",[5],0.92 ± 0.11
CC(N)C(O)c1ccc(O)c(O)c1 (stereo not drawn) [α‐methylnorepinephrine],"% 10 μM PDBu, ERK1/2‐phosphorylation",[1],142.6 ± 22.3%
same,"% 3 μM forskolin, CRE‐SPAP (without forskolin)",[5],171.1 ± 4.3%
same,"Log EC50 (Gs), CRE‐SPAP (with forskolin)",[5],−5.31 ± 0.05
same,"Log EC50 (Gs), CRE‐SPAP (without forskolin)",[5],−5.29 ± 0.02
same,"Log IC50 (Gi), CRE‐SPAP (with forskolin)",[5],−6.47 ± 0.05
same,"Log KD (apparent), CHO‐α2A",[6],−3.69 ± 0.04^app
same,Log KD (binding),[6],−3.69
same,"% inhibition, CRE‐SPAP (with forskolin)",[3],85.2 ± 3.0%
same,"Log EC50 (Gs), CRE‐SPAP (without forskolin)",[3],No response
same,"Log IC50 (Gi), CRE‐SPAP (with forskolin)",[3],−6.52 ± 0.12
same,Log KD,[4],−5.16
